# How the values were obtained:
# [1] = tested on: breast; conditions: cited from earlier work
# [2] = tested on: melanoma; conditions: cited from earlier work
# [3] = thermal stability of taxol; type: physicochemical; conditions: 130° C.
# Method: The process steps can in many cases be performed at about room temperature. […] The process steps should be performed to avoid melting or decomposition of the matrix compound, i.e., the process should be performed at temperatures less than about the melting point or decomposition point of the matrix compound, generally about 140° C. or less. […] Thus preferred temperatures for performing the process steps are about 60° C. to about 130° C.
# [4] = tested on: colon; conditions: cited from earlier work
# [5] = cited from earlier work
# [6] = nonemulsified form; cited from earlier work
# [7] = tested on: microtubules; conditions: in vitro; cited from earlier work
# [8] = tested on: Lewis lung tumor; conditions: cited from earlier work
# [9] = tested on: sarcomas; conditions: cited from earlier work
# [10] = solubilization of taxol in squalane oil; type: physicochemical; conditions: 4.0 mg taxol in 0.400 ml squalane oil, methanol removed
# Method: The methanol was then removed with heating and nitrogen blanket at about 60° C. for 10 minutes.
# [11] = tested on: leukemia; conditions: cited from earlier work
# [12] = precipitation of taxol from oil solution under vacuum; type: physicochemical; conditions: bath temperatures less than 50° to 60° C.
smiles,measurement,setting,value
CC(=O)O[C@H]1C(=O)[C@@]2(C)[C@H]([C@H](OC(=O)c3ccccc3)[C@]3(O)C[C@H](OC(=O)[C@H](O)[C@@H](NC(=O)c4ccccc4)c4ccccc4)C(C)=C1C3(C)C)[C@]1(OC(C)=O)CO[C@@H]1C[C@@H]2O [Taxol],activity against breast tumor system,[1],active
same,activity against melanoma,[2],active
same,thermal stability,[3],stable for at least about two hours
same,activity against colon tumor system,[4],active
same,solubility in vehicle,[5]; ethanol:cremophor EL:isotonic saline (5:5:90),≤ 600 µg/mL
same,solubility in most oils,"[5]; safflower, olive and soybean oil",300 to 600 µg/mL
same,solubility in soybean oil,[5]; soybean oil,300 µg/mL
same,solubility in triacetin,[5]; triacetin,30000 µg/mL
same,degradation in the stomach,[6],degraded in the stomach
same,"concentrations that stabilize microtubules, thus disrupting normal cell division",[7],0.1 to 10.0 µg/mL
same,activity against Lewis lung tumor system,[8],active
same,activity against sarcomas,[9],active
same,solubilization of taxol in squalane oil,[10],completely solubilized
same,activity against leukemia,[11],active
same,precipitation from the oil solution,[12],tends to precipitate from the oil solution

# Source: US5407683A (Research Corporation Technologies, Inc., priority 1992, dated 1995)
